# Measurements: BindingDB's records for doi:10.1021/jm00114a022 (Smithkline Beecham Pharmaceuticals Research and Development, 1991)
# Where a SMILES comes first, the peptide text is derived from it. Bridges are numbered along the chain shown (N, C = ends). [ ]: non-standard residue; d: D form. NMeR = CN[C@@H](CCCNC(=N)N)C(=O)O; hArg = N=C(N)NCCCC[C@H](N)C(=O)O; Cit = NC(=O)NCCC[C@H](N)C(=O)O; Pen = CC(C)(S)[C@H](N)C(=O)O; Sar = CNCC(=O)O
# Tests used:
# [1] = Inhibition of canine platelet-rich plasma agregation induced by ADP
# [2] = Inhibition of human washed platelet aggregation
Molecule,IC50 [1] [µM],Ki [2] [µM]
CC(=O)N[C@@H](CCCNC(=N)N)C(=O)NCC(=O)N[C@@H](CC(=O)O)C(=O)N[C@@H](Cc1ccc(O)cc1)C(N)=O (Ac-RGDY-NH2),102,
Ac-HHLGGAKQAGDV-OH [1N-[1-[5-amino-1-formyl-(1S)-pentylcarbamoyl]-(1S)-ethylcarbamoylmethylcarbamoylmethyl]-2-[2-(1H-5-imidazolyl)-1-[2-(1H-5-imidazolyl)-1-methylcarboxamido-(1S)-ethylcarboxamido]-(1S)-ethylcarboxamido]-4-methyl-(2S)-pentanamide 2-[1-[1-[1-amino-3-carbamoyl-(1S)-propylcarboxamido]-(1S)-ethylcarboxamidomethylcarboxamido]-2-carboxy-(1S)-ethylcarboxamido]-3-methyl-(2S)-butanoic acid],> 200,
CC(=O)N[C@@H](CCCNC(=N)N)C(=O)NCC(=O)N[C@H](CC(=O)N[C@@H](CO)C(N)=O)C(=O)O,> 200,
CC(=O)N[C@H]1CSSC(C)(C)[C@@H](C(N)=O)NC(=O)[C@H](CC(=O)O)NC(=O)CNC(=O)[C@H](CCCN=C(N)N)NC(=O)CNC1=O,11.4,
CC(=O)N[C@@H](CCCNC(=N)N)C(=O)NCC(=O)N[C@@H](CC(N)=O)C(=O)N[C@@H](CO)C(N)=O (Ac-RGNS-NH2),> 200,
CC(=O)N[C@H]1CSSC(C)(C)[C@@H](C(N)=O)NC(=O)[C@H](CC(=O)O)NC(=O)[C@H](C)NC(=O)[C@H](CCCN=C(N)N)NC1=O (Ac-CRAD[Pen]-NH2; disulfide 1-5),200,
"CC(=O)N[C@@H](Cc1c[nH]cn1)C(=O)N[C@@H](Cc1c[nH]cn1)C(=O)N[C@@H](CC(C)C)C(=O)NCC(=O)NCC(=O)N[C@@H](C)C(=O)N[C@@H](CCCCN)C(=O)N[C@H]1CSSC(C)(C)[C@@H](C(N)=O)NC(=O)[C@H](CC(=O)O)NC(=O)CNC(=O)[C@H](CCCN=C(N)N)NC1=O [1N-[1-formyl-(1S)-ethylcarbamoylmethylcarbamoylmethyl]-2-[2-(1H-5-imidazolyl)-1-[2-(1H-5-imidazolyl)-1-methylcarboxamido-(1S)-ethylcarboxamido]-(1S)-ethylcarboxamido]-4-methyl-(2S)-pentanamide [4-Carbamoyl-16-(2,6-diamino-hexanoylamino)-13-(3-guanidino-propyl)-3,3-dimethyl-6,9,12,15-tetraoxo-1,2-dithia-5,8,11,14-tetraaza-cycloheptadec-7-yl]-acetic acid]",9.6,
CC(=O)N[C@H]1CSSC(C)(C)[C@@H](C(N)=O)NC(=O)[C@H](CC(=O)O)NC(=O)CN(C)C(=O)[C@H](CCCN=C(N)N)NC1=O,73.4,
CC(=O)N[C@@H](CCCNC(=N)N)C(=O)NCC(=O)N[C@@H](CCC(=O)O)C(=O)N[C@@H](CO)C(N)=O,> 200,
CC(=O)N[C@H]1CSSC(C)(C)[C@@H](C(N)=O)NC(=O)[C@H](CC(=O)O)NC(=O)CNC(=O)[C@H](CCCN=C(N)N)N(C)C1=O (Ac-C[NMeR]GD[Pen]-NH2; disulfide 1-5),0.355,0.062
CC(=O)N[C@@H]1C(=O)N[C@@H](CCCN=C(N)N)C(=O)NCC(=O)N[C@@H](CC(=O)O)C(=O)N[C@H](C(N)=O)CSSC1(C)C,7.97,
CC(=O)N[C@@H](CCCNC(N)=O)C(=O)NCC(=O)N[C@@H](CC(=O)O)C(=O)N[C@@H](CO)C(N)=O (Ac-[Cit]GDS-NH2),> 200,
CC(=O)N[C@H]1CSSC[C@@H](C(N)=O)NC(=O)[C@H](CC(=O)O)NC(=O)CNC(=O)[C@H](CCCN=C(N)N)NC(=O)CNC1=O,52,
CC(=O)N[C@@H](CCCNC(=N)N)C(=O)N[C@@H](C)C(=O)N[C@@H](CC(=O)O)C(=O)N[C@@H](CO)C(N)=O (Ac-RADS-NH2),> 200,
CC(=O)N[C@@H](CCCNC(=N)N)C(=O)NCC(=O)N[C@@H](CC(=O)O)C(=O)NCCc1ccccc1,75.9,

# The next lines start with the values.
IC50 [1] [µM],Ki [2] [µM],Molecule
> 200,,CC(=O)N[C@@H](CCCNC(=N)N)C(=O)N(C)CC(=O)N[C@@H](CC(=O)O)C(=O)N[C@@H](CO)C(N)=O (Ac-R[Sar]DS-NH2)
68.2,,CC(=O)N[C@H](CCCCNC(=N)N)C(=O)NCC(=O)N[C@@H](CC(=O)O)C(=O)N[C@@H](CO)C(N)=O
32.7,,CC(=O)N[C@H]1CSSC[C@@H](C(N)=O)NC(=O)[C@H](CO)NC(=O)[C@H](CC(=O)O)NC(=O)CNC(=O)[C@H](CCCN=C(N)N)NC1=O (Ac-CRGDSC-NH2; disulfide 1-6)
16.2,,CC(=O)N[C@H]1CSSC[C@@H](C(N)=O)NC(=O)[C@H](CC(=O)O)NC(=O)CNC(=O)[C@H](CCCN=C(N)N)NC1=O
> 200,,CCNC(=O)[C@H](CO)NC(=O)[C@H](CC(=O)O)NC(=O)CNC(=O)[C@H](CCCNC(=N)N)NC(C)=O (Ac-RGDS-NHEt)
> 200,,CC(=O)N[C@@H](CCCCN)C(=O)N[C@H]1CSSC(C)(C)[C@@H](C(=O)O)NC(=O)[C@H](CC(=O)O)NC(=O)CNC(=O)[C@H](C)NC1=O (Ac-KCAGD[Pen]-OH; disulfide 2-6)
113,,Ac-RRGDF-NH2
> 200,,CC(=O)N[C@H]1CSSC(C)(C)[C@@H](C(N)=O)NC(=O)[C@H](CC(N)=O)NC(=O)CNC(=O)[C@H](CCCN=C(N)N)N(C)C1=O (Ac-C[NMeR]GN[Pen]-NH2; disulfide 1-5)
> 200,,CC(=O)N[C@@H](CCCCN)C(=O)NCC(=O)N[C@@H](CC(=O)O)C(=O)N[C@@H](CO)C(N)=O (Ac-KGDS-NH2)
138,,CC(=O)N[C@@H](CCCNC(=N)N)C(=O)NCC(=O)N[C@@H](CC(=O)O)C(N)=O
> 200,,CC(=O)N[C@@H](CCCNC(=N)N)C(=O)N1CCC[C@H]1C(=O)N[C@@H](CC(=O)O)C(=O)N[C@@H](CO)C(N)=O (Ac-RPDS-NH2)
55.5,,CC(=O)N[C@@H](CCCNC(=N)N)C(=O)NCC(=O)N[C@@H](CC(=O)O)C(=O)N[C@H](C(N)=O)C(C)C (Ac-RGDV-NH2)
0.37,,CC(=O)N[C@@H]1C(=O)N(C)[C@@H](CCCN=C(N)N)C(=O)NCC(=O)N[C@@H](CC(=O)O)C(=O)N[C@H](C(N)=O)C(C)(C)SSC1(C)C
3.85,,CC(=O)N[C@H]1CSSC(C)(C)[C@@H](C(N)=O)NC(=O)[C@H](CC(=O)O)NC(=O)CNC(=O)[C@H](CCCCN=C(N)N)NC1=O (Ac-C[hArg]GD[Pen]-NH2; disulfide 1-5)
55.3,,CC(=O)N[C@H]1CSSC(C)(C)[C@@H](C(N)=O)NC(=O)[C@H](CC(=O)O)NC(=O)CNC(=O)[C@H](CCCCN)NC1=O (Ac-CKGD[Pen]-NH2; disulfide 1-5)
> 200,,CC(=O)N[C@@H](CCCCN)C(=O)NCC(=O)N[C@@H](CCC(=O)O)C(=O)N[C@@H](CO)C(N)=O (Ac-KGES-NH2)
> 200,,CC(=O)N[C@@H](Cc1cnc[nH]1)C(=O)NCC(=O)N[C@@H](CC(=O)O)C(=O)N[C@@H](CO)C(N)=O (Ac-HGDS-NH2)
